Experimental data as given in paper PMC8287724, “Reducing Auditory Nerve Excitability by Acute Antagonism of Ca^2+-Permeable AMPA Receptors” (Frontiers in Synaptic Neuroscience, 2021).

Molecular target: T1, A1 adenosine GPCR (Homo sapiens, UniProt P30542)
T1 construct: host or cells: CHO cells
Assay: Radioligand binding assay, A1 receptor (transfected CHO cells)
Settings: antagonist 1 μM
Experimental: Binding assays were conducted to evaluate the affinity of test compounds IEM-1460 and IEM-1925 (Eurofins Scientific, Inc.) for 15 targets: the human alpha-1 adrenergic (A1) receptor, histaminergic (H)-2 and−3 receptors, and muscarinic acetylcholine receptors-1 to−5 in transfected CHO cells by radioligand binding. The neuronal α4β2 and neuronal α7 cholinergic acetylcholine receptors were tested in transfected SH-SY5Y cells. The histaminergic-1 and−4 receptors were tested in transfected HEK-293 cells. Ion channel testing for AMPA and N-methyl-D-aspartate (NMDA) was performed in cells from the rat cerebral cortex. […] Non-specific binding was determined in the presence of 1 μM of DCPX. […] The filters were dried and then counted for radioactivity in a scintillation counter (Topcount, Packard) using a scintillation cocktail (Microscint 0, Packard). The results are expressed as a percent inhibition of the control radioligand specific binding: 100-[(measured specific binding)/(control specific binding) × 100]. […]
We tested the metabolic stability of the compounds with in vitro liver microsome stability assays (Table 1, right). […] We evaluated the compounds for potential toxicity with assays that test for inhibition of off-target ion channels and receptors. […]

T1 sequence (P30542 whole entry): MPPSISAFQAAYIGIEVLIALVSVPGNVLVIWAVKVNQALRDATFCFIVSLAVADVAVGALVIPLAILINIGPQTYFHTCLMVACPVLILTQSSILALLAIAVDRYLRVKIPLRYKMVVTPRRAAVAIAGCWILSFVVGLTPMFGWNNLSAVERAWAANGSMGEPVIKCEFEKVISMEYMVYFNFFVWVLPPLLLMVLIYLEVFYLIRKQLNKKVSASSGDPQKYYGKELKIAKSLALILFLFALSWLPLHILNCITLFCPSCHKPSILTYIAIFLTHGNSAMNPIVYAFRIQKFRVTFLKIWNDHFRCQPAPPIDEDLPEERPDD

Row | Compound | Mean% inhibition (N = 2) of radioligand binding
1 | C[N+](C)(C)CCCCCNCC12CC3CC(CC(C3)C1)C2 [IEM-1460] | <1%
2 | NCCCCCNC1(c2ccccc2)CCCCC1 [IEM-1925] | <1%
